Reference: patent US20240109930A1, “TRIAZOLYL-METHYL SUBSTITUTED ALPHA-D-GALACTOPYRANOSIDE DERIVATIVES” (Idorsia Pharmaceuticals Ltd, priority 2021, published 2024)

Legend:
human Gal-3 (hGal-3) = human Gal-3 (hGal-3) (Homo sapiens (Human), UniProt P17931); assay: Competitive binding assay: biotinylated hGal-3 binding to microplate-adsorbed asialofetuin (ASF); details: IC50 values from several measurements given as geomean
Description: (§1) The inhibitory activity of compounds is determined in competitive binding assays. This spectrophotometric assay measures the binding of biotinylated human Gal-3 (hGal-3) or human Gal-1 (hGal-1), respectively, to a microplate-adsorbed glycoprotein, asialofetuin (ASF) (Proc Natl Acad Sci USA. 2013 Mar. 26; 110(13):5052-7.). Alternatively, and preferably, a human Gal-1 version in which all six cysteines are substituted by serines may be used.
(§2) Briefly, compounds are serially diluted in DMSO (working dilutions). ASF-coated 384well plates are supplemented with 22.8 μL/well of biotinylated hGal-3 or hGal-1 in assay buffer (i.e. 300-1000 ng/mL biotinylated hGal-3 or hGal-1) to which 1.2 μL of compound working dilutions are added and mixed.
(§3) Plates are incubated for 3 hours at 4° C., then washed with cold assay buffer (3×50 uL), incubated for 1 hour with 25 μL/well of a streptavidin-peroxidase solution (diluted in assay buffer to 80 ng/mL) at 4° C., followed by further washing steps with assay buffer (3×50 uL). Finally, 25 μL/well of ABTS substrate is added.
(§4) The calculated IC50 values may fluctuate depending on the daily assay performance. Fluctuations of this kind are known to those skilled in the art. IC50 values from several measurements are given as geomean values.

human Gal-1 (hGal-1) = human Gal-1 (hGal-1) (Homo sapiens, UniProt P09382, C131S/C17S/C43S/C61S/C89S); assay: Competitive binding assay: biotinylated hGal-1 binding to microplate-adsorbed asialofetuin (ASF); details: IC50 values from several measurements given as geomean
Description: as §1, §2, §3, §4

Sequence of human Gal-3 (hGal-3) (P17931 whole entry): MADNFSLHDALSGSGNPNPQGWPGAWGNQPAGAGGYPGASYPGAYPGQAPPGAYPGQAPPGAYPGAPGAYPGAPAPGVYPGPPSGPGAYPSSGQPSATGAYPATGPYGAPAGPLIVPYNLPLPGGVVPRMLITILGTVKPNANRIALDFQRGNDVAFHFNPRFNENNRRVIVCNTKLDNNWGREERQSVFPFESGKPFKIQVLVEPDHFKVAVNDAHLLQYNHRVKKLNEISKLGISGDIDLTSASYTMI

| IC50 (human Gal-3 (hGal-3)) [nM] | IC50 (human Gal-1 (hGal-1)) [nM] | Compound |
| --- | --- | --- |
| 30 | 1130 | CO[C@@H]1[C@@H](n2cc(-c3ccc(Cl)c(F)c3F)nn2)[C@@H](O)[C@@H](CO)O[C@@H]1Cc1cn(C2COCC2(F)F)nn1 (mixture of isomers) [Example 2.1.90.A] |
| 20 | 910 | CO[C@@H]1[C@@H](n2cc(-c3ccc(Cl)c(F)c3F)nn2)[C@@H](O)[C@@H](CO)O[C@@H]1Cc1cn(C2COCC2(F)F)nn1 (mixture of isomers) [Example 2.1.90.B] |
| 60 | 3480 | CO[C@@H]1[C@@H](n2cc(-c3ccc(Cl)c(F)c3F)nn2)[C@@H](O)[C@@H](CO)O[C@@H]1Cc1cn([C@@H]2CCC[C@H]2F)nn1 (relative stereo) [Example 2.1.79.CD, (2R,3R,4S,5R,6R)-4-(4-(4-chloro-2,3-difluorophenyl)-1H-1,2,3-triazol-1-yl)-6-((1-((1R*,2R*)-2-fluorocyclopentyl)-1H-1,2,3-triazol-4-yl)methyl)-2-(hydroxymethyl)-5-methoxytetrahydro-2H-pyran-3-ol] |
|  | 1770 | CO[C@@H]1[C@@H](n2cc(-c3ccc(Cl)c(F)c3F)nn2)[C@@H](O)[C@@H](CO)O[C@@H]1Cc1cn([C@@H]2CC[C@@H]2F)nn1 (relative stereo) [Example 2.1.88.A, (2R,3R,4S,5R,6R)-4-(4-(4-chloro-2,3-difluorophenyl)-1H-1,2,3-triazol-1-yl)-6-((1-((1R*,2S*)-2-fluorocyclobutyl)-1H-1,2,3-triazol-4-yl)methyl)-2-(hydroxymethyl)-5-methoxytetrahydro-2H-pyran-3-ol] |
|  | 1680 | CO[C@@H]1[C@@H](n2cc(-c3ccc(Cl)c(F)c3F)nn2)[C@@H](O)[C@@H](CO)O[C@@H]1Cc1cn([C@@H]2CC[C@H]2F)nn1 (relative stereo) [Example 2.1.88.C, (2R,3R,4S,5R,6R)-4-(4-(4-chloro-2,3-difluorophenyl)-1H-1,2,3-triazol-1-yl)-6-((1-((1R*,2R*)-2-fluorocyclobutyl)-1H-1,2,3-triazol-4-yl)methyl)-2-(hydroxymethyl)-5-methoxytetrahydro-2H-pyran-3-ol] |
| 70 | 4960 | CO[C@@H]1[C@@H](n2cc(-c3ccc(Br)c(F)c3F)nn2)[C@@H](O)[C@@H](CO)O[C@@H]1Cc1cn([C@H]2CCC[C@@H]2F)nn1 (relative stereo) [Example 4.1.79.CD, (2R,3R,4S,5R,6R)-4-(4-(4-bromo-2,3-difluorophenyl)-1H-1,2,3-triazol-1-yl)-6-((1-((1S*,2S*)-2-fluorocyclopentyl)-1H-1,2,3-triazol-4-yl)methyl)-2-(hydroxymethyl)-5-methoxytetrahydro-2H-pyran-3-ol] |
| 30 | 2450 | CO[C@@H]1[C@@H](n2cc(-c3ccc(Br)c(F)c3F)nn2)[C@@H](O)[C@@H](CO)O[C@@H]1Cc1cn([C@@H]2CC[C@@H]2F)nn1 (relative stereo) [Example 4.1.88.AB, (2R,3R,4S,5R,6R)-4-(4-(4-bromo-2,3-difluorophenyl)-1H-1,2,3-triazol-1-yl)-6-((1-((1R*,2S*)-2-fluorocyclobutyl)-1H-1,2,3-triazol-4-yl)methyl)-2-(hydroxymethyl)-5-methoxytetrahydro-2H-pyran-3-ol] |
| 20 | 690 | CO[C@@H]1[C@@H](n2cc(-c3ccc(Cl)c(F)c3F)nn2)[C@@H](O)[C@@H](CO)O[C@@H]1Cc1cn(C2CC(F)C2)nn1 (single isomer, unassigned) [Example 2.1.60.A] |
| 40 | 1190 | CO[C@@H]1[C@@H](n2cc(-c3ccc(Cl)c(F)c3F)nn2)[C@@H](O)[C@@H](CO)O[C@@H]1Cc1cn(C2CC(F)C2)nn1 (single isomer, unassigned) [Example 2.1.60.B] |
| 60 | 2170 | CO[C@@H]1[C@@H](n2cc(-c3ccc(Cl)c(F)c3F)nn2)[C@@H](O)[C@@H](CO)O[C@@H]1Cc1cn(C2CCC2(F)F)nn1 (single isomer, unassigned) [Example 2.1.63.A] |
| 40 | 2000 | CO[C@@H]1[C@@H](n2cc(-c3ccc(Cl)c(F)c3F)nn2)[C@@H](O)[C@@H](CO)O[C@@H]1Cc1cn(C2CCC2(F)F)nn1 (single isomer, unassigned) [Example 2.1.63.B] |
| 30 | 1100 | CO[C@@H]1[C@@H](n2cc(-c3ccc(Cl)c(F)c3F)nn2)[C@@H](O)[C@@H](CO)O[C@@H]1Cc1cn([C@]2(C)CCO[C@@H]2C)nn1 (single isomer, unassigned) [Example 2.1.68.A, (2R,3R,4S,5R,6R)-4-(4-(4-chloro-2,3-difluorophenyl)-1H-1,2,3-triazol-1-yl)-6-((1-((2R*,3R*)-2,3-dimethyltetrahydrofuran-3-yl)-1H-1,2,3-triazol-4-yl)methyl)-2-(hydroxymethyl)-5-methoxytetrahydro-2H-pyran-3-ol] |
| 20 | 670 | CO[C@@H]1[C@@H](n2cc(-c3ccc(Cl)c(F)c3F)nn2)[C@@H](O)[C@@H](CO)O[C@@H]1Cc1cn([C@]2(C)CCO[C@@H]2C)nn1 (single isomer, unassigned) [Example 2.1.68.B, (2R,3R,4S,5R,6R)-4-(4-(4-chloro-2,3-difluorophenyl)-1H-1,2,3-triazol-1-yl)-6-((1-((2R*,3R*)-2,3-dimethyltetrahydrofuran-3-yl)-1H-1,2,3-triazol-4-yl)methyl)-2-(hydroxymethyl)-5-methoxytetrahydro-2H-pyran-3-ol] |
|  | 800 | CO[C@@H]1[C@@H](n2cc(-c3ccc(F)c(F)c3F)nn2)[C@@H](O)[C@@H](CO)O[C@@H]1Cc1cn(C23COC(C2)C3)nn1 [Ex 3.1.44.] |
|  | 730 | CO[C@@H]1[C@@H](n2cc(-c3ccc(F)c(F)c3F)nn2)[C@@H](O)[C@@H](CO)O[C@@H]1Cn1cc(C2(O)CCC2)nn1 [Ex 3.2.31.] |
|  | 2550 | CO[C@@H]1[C@@H](n2cc(-c3ccc(Br)c(F)c3F)nn2)[C@@H](O)[C@@H](CO)O[C@@H]1Cn1cc(C2(O)CCC2)nn1 [Ex 4.2.31.] |
|  | 1400 | CO[C@@H]1[C@@H](n2cc(-c3ccc(Cl)c(F)c3F)nn2)[C@@H](O)[C@@H](CO)O[C@@H]1Cc1cn(C2COCCC2(F)F)nn1 (stereo partly drawn) [Example 2.1.73.A, (2R,3R,4S,5R,6R)-4-(4-(4-chloro-2,3-difluorophenyl)-1H-1,2,3-triazol-1-yl)-6-((1-(4,4-difluorotetrahydro-2H-pyran-3-yl)-1H-1,2,3-triazol-4-yl)methyl)-2-(hydroxymethyl)-5-methoxytetrahydro-2H-pyran-3-ol] |
|  | 760 | CO[C@@H]1[C@@H](n2cc(-c3ccc(Cl)c(F)c3F)nn2)[C@@H](O)[C@@H](CO)O[C@@H]1Cc1cn(C2(C(F)(F)F)CCOC2)nn1 (stereo partly drawn) [Example 2.1.77.A, (2R,3R,4S,5R,6R)-4-(4-(4-chloro-2,3-difluorophenyl)-1H-1,2,3-triazol-1-yl)-2-(hydroxymethyl)-5-methoxy-6-((1-(3-(trifluoromethyl)tetrahydrofuran-3-yl)-1H-1,2,3-triazol-4-yl)methyl)tetrahydro-2H-pyran-3-ol] |
| 40 |  | CO[C@@H]1[C@@H](n2cc(-c3ccc(F)c(F)c3F)nn2)[C@@H](O)[C@@H](CO)O[C@@H]1Cc1cn(C23COC(C2)C3)nn1 [Example 3.1.44, (2R,3R,4S,5R,6R)-6-((1-(2-oxabicyclo[2.1.1]hexan-4-yl)-1H-1,2,3-triazol-4-yl)methyl)-2-(hydroxymethyl)-5-methoxy-4-(4-(2,3,4-trifluorophenyl)-1H-1,2,3-triazol-1-yl)tetrahydro-2H-pyran-3-ol] |
